Experimental data published in patent US8637470B2, “Small humanin-like peptides” (The Regents of the University of California, priority 2008, dated 2014).
“Also recorded” adds a separate entry of the source.

Columns and labels:
[1] = system: 22RV1 human prostate cancer cells; test: Apoptosis ELISA (fragmentation of histone-associated DNA) in 22RV1 cells; format: cell-based; conditions: for Protective effect of SHLP on apoptosis after stattic pre-treatment: 22RV1, 20 μM stattic (STAT3 inhibitor), 100 nM peptide; for Effect of SHLP on apoptosis after PD98059 pre-treatment: 22RV1, 25 μM PD98059 (ERK1/2 inhibitor); for Apoptosis (fragmentation of histone-associated DNA): 22RV1, serum starved 24 h, then 24 h with 100 μM peptide
Description: (§1) SHLPs are anti-apoptotic in 22RV1 prostate cancer cells and NIT-1 β-cells. […] Mouse NIT-1 insulinoma β-cells and 22RV1 human prostate cancer cells were serum starved for 24 h, followed by 24 h incubation with 100 nM scrambled control peptide, HN or SHLPs. Apoptosis was assessed and quantified by ELISA for fragmentation of histone-associated DNA.
(§2) ERK activation is necessary for SHLP-induced inhibition of apoptosis in NIT-1 and 22RV1 cells. To determine the significance of ERK activation for apoptosis inhibition by SHLPs 2 and 3, PD98059 (PD), a specific chemical inhibitor of ERK1/2, was utilized. 22RV1 and NIT-1 cells were serum starved for 24 h in the presence or absence of 25 μM PD or 1 μM wortmannin (PI3-kinase inhibitor; negative control), followed by 24 h incubation with […] scrambled control peptide, SHLP2 or SHLP3. Apoptosis was then assessed by ELISA for fragmentation of histone-associated DNA.
STAT3 Activation is also necessary for SHLP-induced cell survival in 22RV1 cells. Since SHLPs 2 and 3 both stimulate STAT3 phosphorylation in addition to ERK activation, the hypothesis that STAT3 activation occurs downstream of ERK1/2 was tested using a specific chemical inhibitor against STAT3, stattic. 22RV1 cells were incubated for 24 h in SF media in the presence or absence of 20 μM stattic followed by 24 h incubation with 100 nM scrambled control peptide, SHLP2 or SHLP3. Apoptosis was assessed by ELISA for fragmentation of histone-associated DNA. […]

[2] = system: Mouse NIT-1 insulinoma β-cells; test: Apoptosis ELISA (fragmentation of histone-associated DNA) in NIT-1 cells; format: cell-based; conditions: for Effect on apoptosis in the presence of IGFBP-3: NIT-1, 1 μg/ml IGFBP-3 plus SHLP; for Effect of SHLP on apoptosis after PD98059 pre-treatment: NIT-1, 25 μM PD98059 (ERK1/2 inhibitor)
Description: as §1, §2
Role of IGFBP-3 in effects of SHLPs on cell survival. Since IGFBP-3 is an important regulator of HN action, IGFBP-3 was tested for a possible role in regulating the anti- or pro-apoptotic actions of SHLPs. NIT-1 cells were incubated with 1 μg/ml IGFBP-3±0, 10, 100 or 1000 nM SHLP2 or 3 for 24 h. Apoptosis induction was assessed by ELISA for fragmentation of histone-associated DNA.
Co-incubation of SHLPs. To evaluate therapeutic uses involving co-treatment with SHLPs, the effect of HN±SHLPs on apoptosis was tested in both 22RV1 and NIT-1 cells. Cells were incubated in SF media for 24 h followed by 24 h with 100 nM HN, SHLP or peptide combination. Apoptosis was assessed by ELISA for fragmentation of histone-associated DNA. Cells were treated with all possible double peptide combinations. Although many peptide combinations had no additive or combined effects compared with the actions of the peptides individually, co-treatment with certain combinations led to unexpected functional changes (FIG. 11). […] Thus, specific SHLPs may either act on complementary pathways, or interact with each other, leading to change of function of one or both peptides. When the same experiments were repeated in NIT-1 cells, similar, but different, change of function effects were observed (FIG. 11B).

[3] = target: biotinylated-HN (Homo sapiens, UniProt Q8IVG9); test: Dot-blot binding to biotinylated-HN; conditions: 2, 5 or 10 nmol peptide dotted on nitrocellulose
Description: To test a dimerization hypothesis, we performed a dot-blot using biotinylated-HN. Two, 5 or 10 nmol IGF-I (negative control), HN (positive control) or SHLP peptide were dotted on to nitrocellulose membrane, and their ability to bind to biotinylated-HN was assessed immunologically. […] Specific interactions that occur may be determined using, e.g., dot blots with biotinylated SHLPs, and/or antibodies against specific SHLPs.

[4] = system: HAEC'S; test: Intracellular ROS production (DHE fluorescence) in HAEC; format: cell-based; conditions: 0.1 nM peptide over night, oxidized LDL 100 μg protein/ml 30 min
Description: SHLPs suppress intracellular production of Reactive Oxygen Species (ROS). ROS production was monitored by following the conversion of the oxidant-sensitive dye dihydroethidine to the fluorescent ethidium (DHE) for measuring the cellular ability to produce Reactive Oxygen Species. HAEC'S plated on glass cover slips were incubated over night with 0.1 nM SHLP2 or SHLP6 versus regular cultured medium. For ROS measurement, cells were incubated for 30 min with 10 μM DHE in HBSS containing calcium magnesium and glucose at 37° c. Then cells were treated with Oxidized LDL 100 μg protein/ml for 30 minutes at 37° c. Samples were imaged under fluorescence microscope with a Texas Red filter corresponding to the fluorescence of DHE. Average fluorescence intensity was used to evaluate the changes of intracellular ROS generation, results are expressed in relative fluorescence unit (RFU) representing average intensity per cell area.

[5] = NIT-1, 0, 10, 100 or 1000 nM SHLP, 24 h

Chain of biotinylated-HN (Q8IVG9 whole entry): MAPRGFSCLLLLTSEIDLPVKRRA

MGVKFFTLSTRFFPSVQRAVPLWTNS [SHLP2, small humanin-like peptide, mtDNA 2092-2170]
SHLP-induced cell survival after wortmannin pre-treatment ([1]; 22RV1, 1 μM wortmannin (PI3-kinase inhibitor)): inhibited SHLP2-induced cell survival
Protective effect of SHLP on apoptosis after stattic pre-treatment [1]: abrogated the protective effects
Effect of SHLP on apoptosis after PD98059 pre-treatment [1]: abrogated
Apoptosis (fragmentation of histone-associated DNA) [1]: significantly inhibited
Apoptosis (fragmentation of histone-associated DNA) [2, 5]: dose dependent inhibition of apoptosis
SHLP-induced cell survival after wortmannin pre-treatment ([2]; NIT-1, 1 μM wortmannin (PI3-kinase inhibitor)): not in NIT-1 cells
Effect on apoptosis in the presence of IGFBP-3 ([2]; 24 h): unaffected by the presence of IGFBP-3
Effect of SHLP on apoptosis after PD98059 pre-treatment [2]: abrogated
Apoptosis (fragmentation of histone-associated DNA) ([2]; NIT-1, serum starved 24 h, then 24 h with 100 nM peptide): significantly inhibited
Binding to biotinylated-HN (dot-blot) [3]: weak interaction; also recorded: binds
Intracellular ROS production (DHE fluorescence) [4]: suppresses ROS production; also recorded: suppresses production of reactive oxygen species

MLGYNFSSFPCGTISIAPGFNFYRLYFIWVNGLAKVVW [SHLP3, small humanin-like peptide, mtDNA 1707-1821]
Protective effect of SHLP on apoptosis after stattic pre-treatment [1]: abrogated the protective effects
Effect of SHLP on apoptosis after PD98059 pre-treatment [1]: abrogated
Apoptosis (fragmentation of histone-associated DNA) [1]: significantly inhibited
Apoptosis (fragmentation of histone-associated DNA) [2, 5]: reduced levels of apoptosis
Effect on apoptosis in the presence of IGFBP-3 ([2]; 24 h): inhibit IGFBP-3-induced apoptosis
Effect of SHLP on apoptosis after PD98059 pre-treatment [2]: abrogated
